According to article PMC11233587, “Design, synthesis, in vitro, and in silico anti-α-glucosidase assays of N-phenylacetamide-1,2,3-triazole-indole-2-carboxamide derivatives as new anti-diabetic agents” (Scientific Reports, 2024):
“Also recorded” adds a separate entry of the source. Where two headings read alike, the source gives them in different places.

Key:
[1] = target: yeast α-glucosidase (Saccharomyces cerevisiae, UniProt P53341); test: biochemical; type: biochemical
[2] = target: T1, α-amylase (pancreatic form) (Homo sapiens, UniProt P04746); test: α-Amylase inhibition assay; type: biochemical; conditions: read-out: IC50 against α-amylase
T1 sequence (P04746 16-511): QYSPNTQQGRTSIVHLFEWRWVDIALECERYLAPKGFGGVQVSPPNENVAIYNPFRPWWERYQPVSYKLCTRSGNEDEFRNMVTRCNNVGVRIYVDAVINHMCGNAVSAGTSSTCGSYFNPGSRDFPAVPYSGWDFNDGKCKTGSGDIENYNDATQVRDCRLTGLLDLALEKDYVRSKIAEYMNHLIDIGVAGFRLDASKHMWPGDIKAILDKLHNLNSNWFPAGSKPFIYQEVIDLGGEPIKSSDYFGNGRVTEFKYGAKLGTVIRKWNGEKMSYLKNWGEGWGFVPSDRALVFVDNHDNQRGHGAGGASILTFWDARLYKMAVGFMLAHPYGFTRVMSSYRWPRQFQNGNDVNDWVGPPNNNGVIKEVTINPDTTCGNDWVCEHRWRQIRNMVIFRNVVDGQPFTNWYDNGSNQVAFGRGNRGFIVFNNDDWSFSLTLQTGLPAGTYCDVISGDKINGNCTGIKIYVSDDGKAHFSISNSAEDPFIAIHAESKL
Procedure: Inhibitory activity of the most poten new α-glucosidase inhibitors 5k, 5j, and 5f was evaluated against α-amylase (pancreatic form)[15].
(Supplementary Information S1).

[3] = target: α-glucosidase; parameters: method as in doi:10.1007/s00044-020-02603-7; conditions: template compounds A, read-out: IC50 for Compounds A (Fig. 3); cited from earlier work
[4] = target: α-glucosidase (Saccharomyces cerevisiae, UniProt P53341); test: Kinetics of α-glucosidase inhibition (Lineweaver–Burk plot and secondary plot); type: biochemical, yeast
Source text: As the result, with increasing concentration of compound 5k, Vmax values remained constant while Km values increased.
In vitro assays (inhibition effects and kinetics) of the new compounds 5a–n performed according to pervious reported work[15] (Supplementary Information S1).

[5] = read-out: IC50 against α-glucosidase

yeast α-glucosidase, sequence (P53341 whole entry): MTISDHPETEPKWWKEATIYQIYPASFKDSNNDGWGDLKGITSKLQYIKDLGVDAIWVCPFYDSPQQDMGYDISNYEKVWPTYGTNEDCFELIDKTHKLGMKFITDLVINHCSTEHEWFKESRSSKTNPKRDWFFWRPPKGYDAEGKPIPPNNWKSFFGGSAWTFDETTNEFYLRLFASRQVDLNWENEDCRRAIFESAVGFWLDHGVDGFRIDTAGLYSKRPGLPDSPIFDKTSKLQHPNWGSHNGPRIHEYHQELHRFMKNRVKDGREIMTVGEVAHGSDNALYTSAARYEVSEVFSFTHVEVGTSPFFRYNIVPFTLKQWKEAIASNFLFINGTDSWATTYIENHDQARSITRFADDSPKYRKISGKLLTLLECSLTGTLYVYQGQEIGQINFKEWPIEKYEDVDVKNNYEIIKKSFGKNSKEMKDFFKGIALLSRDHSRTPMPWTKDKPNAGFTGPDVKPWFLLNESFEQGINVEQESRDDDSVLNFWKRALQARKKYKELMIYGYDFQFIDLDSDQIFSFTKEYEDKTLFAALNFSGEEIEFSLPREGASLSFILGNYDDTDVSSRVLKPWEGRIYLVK
α-glucosidase (Saccharomyces cerevisiae, UniProt P53341), sequence (P53341 whole entry): as above

| SMILES | melting point [°C] | IC50 [1, 5] [µM] | IC50 [1] [µM] | further results |
| --- | --- | --- | --- | --- |
| CCc1ccc(NC(=O)Cn2cc(CNC(=O)c3cc4ccccc4[nH]3)nn2)cc1 [Compound 5f, N-((1-(2-((4-ethylphenyl)amino)-2-oxoethyl)-1H-1,2,3-triazol-4-yl)methyl)-1H-indole-2-carboxamide] | 203 to 205 | 40.2 ± 1.6 |  | IC50 [2]: > 150 µM |
| O=C(Cn1cc(CNC(=O)c2cc3ccccc3[nH]2)nn1)Nc1cccc([N+](=O)[O-])c1 [Compound 5l, N-((1-(2-((3-nitrophenyl)amino)-2-oxoethyl)-1H-1,2,3-triazol-4-yl)methyl)-1H-indole-2-carboxamide] | 254 to 256 | 110.3 ± 0.6 |  |  |
| O=C(Cn1cc(CNC(=O)c2cc3ccccc3[nH]2)nn1)Nc1ccc(Cl)cc1 [Compound 5i, N-((1-(2-((4-chlorophenyl)amino)-2-oxoethyl)-1H-1,2,3-triazol-4-yl)methyl)-1H-indole-2-carboxamide] | 225 to 227 |  | 83 ± 1.6 |  |
| O=C(Cn1cc(CNC(=O)c2c3ccccc3nc3ccccc23)nn1)Nc1ccccc1 [Compounds A, R = H] |  |  |  | IC50 [3]: 171 ± 2.1 µM |
| O=C(Cn1cc(CNC(=O)c2c3ccccc3nc3ccccc23)nn1)Nc1ccc([N+](=O)[O-])cc1 [Compounds A, R = 4-NO2] |  |  |  | IC50 [3]: 152 ± 1.7 µM |
| O=C(Cn1cc(CNC(=O)c2cc3ccccc3[nH]2)nn1)Nc1ccccc1 [Compound 5a, N-((1-(2-oxo-2-(phenylamino)ethyl)-1H-1,2,3-triazol-4-yl)methyl)-1H-indole-2-carboxamide] | 216 to 218 |  | 62.9 ± 0.3 |  |
| O=C(Cn1cc(CNC(=O)c2cc3ccccc3[nH]2)nn1)Nc1ccc(Br)cc1 [Compound 5k, N-((1-(2-((4-bromophenyl)amino)-2-oxoethyl)-1H-1,2,3-triazol-4-yl)methyl)-1H-indole-2-carboxamide] | 236 to 238 |  | 26.8 ± 0.5 | type of inhibition ([4]; Lineweaver–Burk plot, Vmax constant, Km increased): competitive type of inhibition; also recorded: competitive inhibitor; Ki ([4]; secondary plot of Lineweaver–Burk plots): 26 µM; improvement in the inhibition effect in comparison to standard inhibitor acarbose ([1]; ratio of α-glucosidase IC50 values, acarbose vs compound): ~28 fold; IC50 [2]: > 150 µM |
| O=C(Cn1cc(CNC(=O)c2cc3ccccc3[nH]2)nn1)Nc1cccc(Cl)c1 [Compound 5h, N-((1-(2-((3-chlorophenyl)amino)-2-oxoethyl)-1H-1,2,3-triazol-4-yl)methyl)-1H-indole-2-carboxamide] | 211 to 213 |  |  |  |
| O=C(Cn1cc(CNC(=O)c2c3ccccc3nc3ccccc23)nn1)Nc1ccc(Cl)cc1 [Compounds A, R = 4-Cl] |  |  |  | IC50 [3]: 309 ± 3.4 µM |
| Cc1cccc(NC(=O)Cn2cc(CNC(=O)c3cc4ccccc4[nH]3)nn2)c1 [Compound 5b, N-((1-(2-oxo-2-(m-tolylamino)ethyl)-1H-1,2,3-triazol-4-yl)methyl)-1H-indole-2-carboxamide] | 224 to 226 |  | 63.6 ± 1.1 |  |
| O=C(Cn1cc(CNC(=O)c2c3ccccc3nc3ccccc23)nn1)Nc1ccc(Br)cc1 [Compounds A, R = 4-Br] |  |  |  | IC50 [3]: 269 ± 2.8 µM |
| Cc1ccc(NC(=O)Cn2cc(CNC(=O)c3c4ccccc4nc4ccccc34)nn2)cc1 [Compounds A, R = 4-Me] |  |  |  | IC50 [3]: 519 ± 6.7 µM |
| COc1ccc(NC(=O)Cn2cc(CNC(=O)c3cc4ccccc4[nH]3)nn2)cc1 [Compound 5g, N-((1-(2-((4-methoxyphenyl)amino)-2-oxoethyl)-1H-1,2,3-triazol-4-yl)methyl)-1H-indole-2-carboxamide] | 209 to 211 |  | 83 ± 0.7 |  |
| O=C(Cn1cc(CNC(=O)c2cc3ccccc3[nH]2)nn1)Nc1ccc([N+](=O)[O-])cc1 [Compound 5m, N-((1-(2-((4-nitrophenyl)amino)-2-oxoethyl)-1H-1,2,3-triazol-4-yl)methyl)-1H-indole-2-carboxamide] | 259 to 261 | 78.8 ± 0.3 |  |  |
| Cc1cc([N+](=O)[O-])ccc1NC(=O)Cn1cc(CNC(=O)c2cc3ccccc3[nH]2)nn1 [Compound 5n, N-((1-(2-((2-methyl-4-nitrophenyl)amino)-2-oxoethyl)-1H-1,2,3-triazol-4-yl)methyl)-1H-indole-2-carboxamide] | 229 to 231 | 43.5 ± 0.7 |  |  |
| O=C(Cn1cc(CNC(=O)c2cc3ccccc3[nH]2)nn1)Nc1ccc(Cl)cc1Cl [Compound 5j, N-((1-(2-((2,4-dichlorophenyl)amino)-2-oxoethyl)-1H-1,2,3-triazol-4-yl)methyl)-1H-indole-2-carboxamide] | 233 to 235 | 39.6 ± 1.4 |  | IC50 [2]: > 150 µM |
| Cc1ccc(NC(=O)Cn2cc(CNC(=O)c3cc4ccccc4[nH]3)nn2)cc1 [Compound 5c, N-((1-(2-oxo-2-(p-tolylamino)ethyl)-1H-1,2,3-triazol-4-yl)methyl)-1H-indole-2-carboxamide] | 231 to 233 |  | 42.6 ± 0.9 |  |
| Cc1cccc(NC(=O)Cn2cc(CNC(=O)c3cc4ccccc4[nH]3)nn2)c1C [Compound 5d, N-((1-(2-((2,3-dimethylphenyl)amino)-2-oxoethyl)-1H-1,2,3-triazol-4-yl)methyl)-1H-indole-2-carboxamide] | 205 to 207 | 66 ± 1.8 |  |  |
| Cc1cccc(C)c1NC(=O)Cn1cc(CNC(=O)c2cc3ccccc3[nH]2)nn1 [Compound 5e, N-((1-(2-((2,6-dimethylphenyl)amino)-2-oxoethyl)-1H-1,2,3-triazol-4-yl)methyl)-1H-indole-2-carboxamide] | 208 to 210 | 111 ± 1.6 |  |  |
